In patent publication US20150099800A1, “NOVEL LIPASE INHIBITORS, REPORTER SUBSTRATES AND USES THEREOF” (Northeastern University, priority 2012, published 2015):
“Also recorded” adds a separate entry of the source. Like-named read-outs stand apart in the source and are kept apart here. Values belong to the molecule of their own block, whether it stands above or below them.

What was measured:
[1] = target: T1, hDAGLα (Homo sapiens, UniProt Q9Y4D2); assay: Evaluation of FRET reporter substrates for enzymatic hydrolysis; assay type: biochemical; set-up: V5; His; expressed in transfected cells; host or cells: HEK293T, transient; crude cell lysate or membrane preparation
T1 sequence (Q9Y4D2 1-1042): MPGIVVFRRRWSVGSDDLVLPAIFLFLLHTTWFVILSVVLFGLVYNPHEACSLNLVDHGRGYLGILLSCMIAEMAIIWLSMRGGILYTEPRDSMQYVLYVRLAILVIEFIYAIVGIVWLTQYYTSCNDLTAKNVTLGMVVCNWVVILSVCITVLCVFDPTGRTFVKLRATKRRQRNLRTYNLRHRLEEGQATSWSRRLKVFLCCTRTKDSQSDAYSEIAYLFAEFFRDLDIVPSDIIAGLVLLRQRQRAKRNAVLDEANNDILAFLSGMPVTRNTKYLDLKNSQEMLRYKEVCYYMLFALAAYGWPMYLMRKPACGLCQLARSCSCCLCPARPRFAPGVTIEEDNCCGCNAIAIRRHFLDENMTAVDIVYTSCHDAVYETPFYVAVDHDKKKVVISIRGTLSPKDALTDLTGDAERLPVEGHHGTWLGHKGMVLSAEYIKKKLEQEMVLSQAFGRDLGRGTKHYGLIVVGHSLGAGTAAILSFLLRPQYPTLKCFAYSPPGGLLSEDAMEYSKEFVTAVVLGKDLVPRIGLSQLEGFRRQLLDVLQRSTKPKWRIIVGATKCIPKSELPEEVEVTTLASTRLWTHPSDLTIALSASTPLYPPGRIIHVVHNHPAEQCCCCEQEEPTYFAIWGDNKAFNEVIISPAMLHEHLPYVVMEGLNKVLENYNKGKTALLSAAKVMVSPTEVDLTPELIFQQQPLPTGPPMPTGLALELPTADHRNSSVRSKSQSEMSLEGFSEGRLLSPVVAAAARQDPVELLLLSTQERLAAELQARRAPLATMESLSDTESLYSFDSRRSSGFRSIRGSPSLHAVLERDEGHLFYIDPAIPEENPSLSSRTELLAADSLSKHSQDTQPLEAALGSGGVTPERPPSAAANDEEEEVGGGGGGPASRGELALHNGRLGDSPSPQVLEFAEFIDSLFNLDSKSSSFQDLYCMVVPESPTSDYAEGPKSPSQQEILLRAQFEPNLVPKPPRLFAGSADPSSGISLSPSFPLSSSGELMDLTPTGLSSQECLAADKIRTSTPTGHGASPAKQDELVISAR
Text: Reporter compounds as substrates for hDAGLα activity with HEK293T cell lysates in the presence of 10% DMSO are shown. A) Pyrenyl analogs (17)-(19), (21), and (22) (EX 320 nm, EM 400 nm). B) NBD analog (20) (EX 485 nm, EM 535 nm).
A convenient in vitro fluorometric esterase assay utilizing the BioTek Instruments Synergy™ HT Multi-Mode Microplate 96-well reader was developed that measured nanomolar concentrations of fluorescent reaction product.

[2] = system: Lipoprotein Lipase (Bacterial); assay type: biochemical, Pseudomonas sp.
[3] = target: T2, Pancreatic Lipase (Porcine) (Sus scrofa, UniProt P00591); assay type: biochemical
T2 construct: purchased Sigma L3126
T2 sequence (P00591 1-450): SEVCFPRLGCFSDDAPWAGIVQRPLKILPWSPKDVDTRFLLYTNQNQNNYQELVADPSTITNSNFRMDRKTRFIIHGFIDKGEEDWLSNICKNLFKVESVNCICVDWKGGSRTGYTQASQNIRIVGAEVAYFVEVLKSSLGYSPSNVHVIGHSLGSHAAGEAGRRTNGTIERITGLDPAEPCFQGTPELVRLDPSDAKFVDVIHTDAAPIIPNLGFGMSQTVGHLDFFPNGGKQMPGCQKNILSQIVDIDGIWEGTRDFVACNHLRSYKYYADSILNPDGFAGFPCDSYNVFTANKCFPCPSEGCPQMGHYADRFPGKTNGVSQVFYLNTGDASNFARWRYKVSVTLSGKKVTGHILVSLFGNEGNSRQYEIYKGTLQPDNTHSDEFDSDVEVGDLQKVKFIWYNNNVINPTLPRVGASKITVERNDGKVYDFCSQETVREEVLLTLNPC

[4] = target: T3, MAGL (Homo sapiens, UniProt Q99685); assay: hMAGL coumarin substrate fluorescence assay; assay type: biochemical; set-up: The N-terminal his-tagged full length human monoacylglycerol lipase used; His (N); made in house; host or cells: E. coli
T3 sequence (Q99685 1-303): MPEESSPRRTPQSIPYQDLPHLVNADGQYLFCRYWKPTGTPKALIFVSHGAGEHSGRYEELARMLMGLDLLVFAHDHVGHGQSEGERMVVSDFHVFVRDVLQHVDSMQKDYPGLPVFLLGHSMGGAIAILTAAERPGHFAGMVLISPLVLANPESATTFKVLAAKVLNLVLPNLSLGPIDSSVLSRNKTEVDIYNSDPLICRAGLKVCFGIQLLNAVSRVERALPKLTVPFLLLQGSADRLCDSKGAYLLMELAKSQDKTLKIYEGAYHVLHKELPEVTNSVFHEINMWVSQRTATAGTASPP

[5] = target: T4, mDAGLα (Mus musculus, UniProt Q6WQJ1); assay: Radio-TLC assay with [14C]SAG substrate, mDAGLα
T4 sequence (Q6WQJ1 1-1044): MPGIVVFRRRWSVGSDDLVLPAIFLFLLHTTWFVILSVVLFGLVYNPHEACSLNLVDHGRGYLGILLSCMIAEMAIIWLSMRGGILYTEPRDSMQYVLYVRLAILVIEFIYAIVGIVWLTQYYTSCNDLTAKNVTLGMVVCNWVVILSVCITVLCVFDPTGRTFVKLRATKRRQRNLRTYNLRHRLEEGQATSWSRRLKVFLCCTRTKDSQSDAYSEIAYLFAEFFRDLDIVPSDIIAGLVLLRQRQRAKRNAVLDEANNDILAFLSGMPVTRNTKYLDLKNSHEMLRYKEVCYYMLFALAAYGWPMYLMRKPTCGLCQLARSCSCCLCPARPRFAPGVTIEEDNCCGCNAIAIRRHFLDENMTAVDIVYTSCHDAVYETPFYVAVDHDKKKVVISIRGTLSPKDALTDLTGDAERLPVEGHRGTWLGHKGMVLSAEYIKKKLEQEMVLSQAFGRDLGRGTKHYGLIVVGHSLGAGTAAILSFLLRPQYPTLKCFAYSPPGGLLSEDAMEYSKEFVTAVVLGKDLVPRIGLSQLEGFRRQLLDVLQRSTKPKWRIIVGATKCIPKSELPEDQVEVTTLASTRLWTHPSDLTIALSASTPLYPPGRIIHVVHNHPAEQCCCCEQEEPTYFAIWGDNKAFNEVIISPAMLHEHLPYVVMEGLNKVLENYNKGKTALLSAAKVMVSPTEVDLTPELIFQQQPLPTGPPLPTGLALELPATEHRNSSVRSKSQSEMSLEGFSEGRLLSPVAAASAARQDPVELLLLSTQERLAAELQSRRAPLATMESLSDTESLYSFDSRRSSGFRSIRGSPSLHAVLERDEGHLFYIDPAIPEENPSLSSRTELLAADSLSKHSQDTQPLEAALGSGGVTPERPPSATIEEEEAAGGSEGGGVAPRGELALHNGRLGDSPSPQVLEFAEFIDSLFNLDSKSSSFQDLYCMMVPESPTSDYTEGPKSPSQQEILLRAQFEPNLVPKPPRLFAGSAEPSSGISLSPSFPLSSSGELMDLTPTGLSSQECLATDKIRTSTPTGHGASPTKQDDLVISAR

[6] = target: T5, rFAAH (Rattus norvegicus, UniProt P97612); assay: rFAAH coumarin substrate fluorescence assay; assay type: biochemical
T5 construct: His (N); made in house; host or cells: E. coli (cell line provided by the Cravatt group)
T5 sequence (P97612 30-579 limits assumed): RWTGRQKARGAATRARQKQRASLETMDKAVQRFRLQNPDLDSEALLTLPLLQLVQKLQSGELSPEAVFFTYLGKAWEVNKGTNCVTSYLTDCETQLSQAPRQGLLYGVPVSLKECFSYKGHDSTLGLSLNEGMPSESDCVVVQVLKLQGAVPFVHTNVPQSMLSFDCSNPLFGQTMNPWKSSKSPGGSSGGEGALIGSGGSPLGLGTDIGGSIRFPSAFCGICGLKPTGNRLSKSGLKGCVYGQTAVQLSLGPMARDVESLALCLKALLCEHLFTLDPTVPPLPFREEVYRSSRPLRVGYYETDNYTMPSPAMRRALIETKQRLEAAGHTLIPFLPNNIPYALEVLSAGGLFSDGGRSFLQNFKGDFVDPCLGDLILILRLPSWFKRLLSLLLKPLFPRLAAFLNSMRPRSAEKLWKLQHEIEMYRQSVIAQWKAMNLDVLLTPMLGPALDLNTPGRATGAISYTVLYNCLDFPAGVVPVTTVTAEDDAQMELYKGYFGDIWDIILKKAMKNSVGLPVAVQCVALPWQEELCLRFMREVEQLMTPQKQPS

[7] = target: T1, hDAGLα
[8] = target: T3, MAGL; conditions: cited from earlier work
[9] = system: cannabinoid receptors; conditions: literature; cited from earlier work
[10] = target: T1, hDAGLα; remark: listed apart in the source
[11] = system: FAAH; conditions: cited from earlier work
[12] = system: DAGL; conditions: cited from earlier work

Molecule: CCCCCCCCCCC[C@@H](C[C@@H]1OC(=O)[C@H]1CCCCCC)OC(=O)[C@@H](NC=O)[C@@H](C)CC [Compound 4]
Lipoprotein Lipase (Bacterial) inhibition at 10 μM (%) ([2]; 10 μM): 84% | hMAGL inhibition at 10 μM (%) [4]: 16% | mDAGLα inhibition at 10 nM (%) [5]: 69% | mDAGLα inhibition at 100 nM (%) [5]: 80% | mDAGLα inhibition at 1000 nM (%) [5]: 96% | mDAGLα inhibition at 10000 nM (%) [5]: 96% | rFAAH inhibition at 10 μM (%) ([6]; 10 μM): 7% | Pancreatic Lipase (Porcine) inhibition at 10 μM (%) ([3]; 10 μM): 99% | hDAGLα inhibition at 10 μM (0.05% Triton X-100) (%), FRET ([7]; 10 μM): 99% | hDAGLα inhibition at 10 μM detergent free (%), FRET ([7]; 10 μM, detergent free): 92%

Molecule: CCCCCCCCCCC[C@@H](C[C@@H]1OC(=O)[C@H]1CCCCCC)OC(=O)[C@@H](NC=O)[C@H](C)CC [Compound 5]
Lipoprotein Lipase (Bacterial) inhibition at 10 μM (%) ([2]; 10 μM): 61% | hMAGL inhibition at 10 μM (%) [4]: 1% | mDAGLα inhibition at 10 nM (%) [5]: 60% | mDAGLα inhibition at 100 nM (%) [5]: 61% | mDAGLα inhibition at 1000 nM (%) [5]: 88% | mDAGLα inhibition at 10000 nM (%) [5]: 100% | rFAAH inhibition at 10 μM (%) ([6]; 10 μM): 3% | Pancreatic Lipase (Porcine) inhibition at 10 μM (%) ([3]; 10 μM): 98% | hDAGLα inhibition at 10 μM (0.05% Triton X-100) (%), FRET ([7]; 10 μM): 99% | hDAGLα inhibition at 10 μM detergent free (%), FRET ([7]; 10 μM, detergent free): 92%

Molecule: O=C(Oc1ccc([N+](=O)[O-])cc1)N1CCN(Cc2cccc(Oc3ccccc3)c2)CC1 [JZL195]
Lipoprotein Lipase (Bacterial) inhibition at 10 μM (%) [2]: <0% | mDAGLα inhibition at 10000 nM (%) [5]: 10% | Pancreatic Lipase (Porcine) inhibition at 10 μM (%) [3]: 43% | hDAGLα inhibition at 10 μM detergent free (%), FRET [7]: 64, 55° % | hDAGLα inhibition at 10 μM detergent free (%), FRET, marker ° [7]: 64, 55° %

Molecule: O=S(=O)(F)Cc1ccccc1 [PMSF, phenylmethylsulfonylfluoride]
Lipoprotein Lipase (Bacterial) inhibition at 10 μM (%) [2]: <0% | inhibition of MAGL activity reported in the literature [8]: poor inhibitors | binding to the cannabinoid receptors, previous reports [9]: did not bind | inhibition of hDAGLα in radio-TLC assays [10]: poor inhibitors | inhibition of FAAH activity reported in the literature [11]: poor inhibitors | effect on DAGL activity reported in the literature [12]: poor inhibitors; also recorded: not affected

Molecule: CCCCCCCCCCCCCCCCS(=O)(=O)F [n-C16H33SO2F, Palmitylsulfonyl fluoride]
rFAAH inhibition at 10 μM (%) [6]: 100^E % | IC50 ([6]; read-out: rFAAH apparent IC50 (8 pt, 95% confidence)): 6.3 nM | IC50 ([11]; read-out: IC50 FAAH with radiolabeled N-arachidonoylethanolamine (anandamide) substrate): 7 nM

More lines, now with the values ahead:

quality as substrate for enzymatic hydrolysis [1]: poor substrates
Molecule: 1-(5-Dimethyloxazolinyloxyl)stearoyl-2-pyrenebutanoyl-3-methyl-sn-glycerol [Compound 21]

quality as substrate for enzymatic hydrolysis [1]: poor substrates
Molecule: 1-(16-Dimethyloxazolinyloxyl)stearoyl-2-pyrenebutanoyl-3-methyl-sn-glycerol [Compound 22]

Lipoprotein Lipase (Bacterial) inhibition at 10 μM (%) ([2]; 10 μM): <0% | inhibition at 10 µM ([3]; read-out: Pancreatic Lipase (Porcine) inhibition at 10 μM (%)): 36%
Molecule: CCCCCCCCCCCCCC1CC(=O)O1 (racemic) [Compound 9, 4-Tridecyloxetan-2-one]

Lipoprotein Lipase (Bacterial) inhibition at 10 μM (%) ([2]; 10 μM): 67% | inhibition at 10 µM ([4]; read-out: hMAGL inhibition at 10 μM (%)): 56%
Molecule: CCCCCCC[C@@H]1OC(=O)[C@H]1CCCCCC (relative stereo) [Compound 10, trans-3-hexyl-4-heptyloxetan-2-one]

Lipoprotein Lipase (Bacterial) inhibition at 10 μM (%) ([2]; 10 μM): 33%
Molecule: CCCCCCC[C@H]1OC(=O)[C@H]1CCCCCC (relative stereo) [Compound 11, cis-3-Hexyl-4-heptyloxetan-2-one]
